For data set [1] the following is noted: 20° C.; cited from earlier work.
Data set [2] can be described thus: Solubility of asenapine maleate in a variety of solvents. It counts as physicochemical. The note with it: organic solvent or mixture, read-out: solubility of asenapine maleate, Concentration. The method, then:
The asenapine or a pharmaceutically acceptable salt thereof is dissolved in the organic phase or dispersed as a solid in the organic phase. In order to effectively dissolve the asenapine or a pharmaceutically acceptable salt thereof in the organic phase, a solution of the active principle in a solvent S2 can be provided, and this solution can be combined with the solution of the polymer in the organic solvent S1. It will be understood that, in this case, the solvents S1 and S2 should be different solvents. It is also possible to add the active principle to the solvent S2 in an amount that only a part of it is dissolved in S2, and a part of it remains dispersed as a solid in the solvent S2. Using the process described herein, the active principle can also be encapsulated/embedded in the polymer at a high efficiency in this case. […] Nevertheless, the following table summarizes the solubility of asenapine maleate in a variety of solvents.

The next data set has as its system muscarinic receptors. As to conditions: cited from earlier work.
For data set [3] the following is noted: cited from earlier work.
The next data set relates to serotonin receptors. As to conditions: rank among receptor classes; cited from earlier work.

Counter-ions that a name gives are not always drawn. Like-named read-outs stand apart in the source and are kept apart here.

With glycofurol, the solubility in water entry in data set [1] is listed as “soluble”.
With `CN1CC2c3ccccc3Oc3ccc(Cl)cc3C2C1` (stereo not shown) [asenapine maleate], the solubility stood at 700 mg/mL in data set [2] (DMSO); 100 mg/mL in data set [2] (THF); 50 mg/mL in data set [2] (solvent EMK); 700 mg/mL in data set [2] (solvent NMP); 67 mg/mL in data set [2] (solvent acetone); 500 mg/mL in data set [2] (solvent benzyl alcohol). Also, the solubility stood at 7 mg/mL in data set [2] (solvent benzyl benzoate); 7 mg/mL in data set [2] (solvent dimethycarbonate); 500 mg/mL in data set [2] (solvent dimethylacetamide); 100 mg/mL in data set [2] (solvent ethanol); 10 mg/mL in data set [2] (solvent ethyl acetate); 10 mg/mL in data set [2] (solvent ethyl benzoate). The solubility in data set [2] (solvent ethyl formate) was 100 mg/mL; in data set [2] (solvent glycofurol), 270 mg/mL; in data set [2] (solvent isopropanol), 7 mg/mL; in data set [2] (solvent isopropyl acetate), 9 mg/mL; in data set [2] (solvent isopropyl formate) it was 100 mg/mL; in data set [2] (solvent methyl acetate) it was 25 mg/mL. The solubility in data set [2] (solvent methyl benzoate) stood at 20 mg/mL.
As for `CC(C)=O` [acetone], in data set [1], the solubility in water entry is listed as “soluble”.
With `CN1CC2c3ccccc3Oc3ccc(Cl)cc3C2C1` (stereo not drawn) [asenapine, trans-5-chloro-2,3,3a,12b-tetrahydro-2-methyl-1-H-dibenz[2,3:6,7]oxepino[4,5-c]pyrrole], the “affinity for muscarinic receptors” value with muscarinic receptors is “minimal affinity”. For the same compound, the bioavailability (commonly the share of a dose that reaches the circulation, judged against a reference dose that is usually intravenous) in data set [3] (oral formulations) was 2%; in data set [3] (sublingual tablets), 35%. For the same compound, in the data set on serotonin receptors, the “affinity for blocking serotonin receptors” value is reported as “highest affinity”.

The values above are taken from patent US20170231957A1, “INJECTABLE FORMULATIONS OF ASENAPINE” (ALRISE Biosystems GmbH, priority 2014, published 2017).
